# Test system: Spodoptera littoralis (Egyptian cotton leafworm)
# Experiment: Spodoptera littoralis cotton leaf disc spray test
# Format: in vivo
# Conditions: 200 ppm sprayed on cotton leaf discs, L1 larvae, 3 days after treatment; mortality, repellent effect, feeding behaviour, growth regulation
# Experimental: This Example illustrates the pesticidal/insecticidal properties of compounds of formula (I). Test against were performed as follows:
# Spodoptera littoralis (Egyptian cotton leafworm)
# Cotton leaf discs were placed on agar in a 24-well microtiter plate and sprayed with test solutions at an application rate of 200 ppm. After drying, the leaf discs were infested with 5 L1 larvae. The samples were checked for mortality, repellent effect, feeding behaviour, and growth regulation 3 days after treatment (DAT). The following compounds gave at least 80% control of Spodoptera littoralis: CIII-49.
smiles,measurement,value
"O=C(c1ccnc(Cl)c1)N1C[C@]2(CCN(C/C=C/c3ccc(Cl)cc3)C[C@H]2O)c2cc(Cl)ccc21 [CIII-49, 5-chloro-1-(2-chloropyridin-4-yl)carbonyl-1′-[trans-3-(4-chlorophenyl)allyl]-3′-hydroxy-spiro[indoline-3,4′-piperidine]]",control of Spodoptera littoralis,at least 80%
